Patent US10004786B2 (Zealand Pharma A/S, priority 2009, dated 2018)

Legend:
Format in all cases: in vivo
[1] = Pharmacokinetic screening in mouse plasma after subcutaneous administration; conditions: sc, mice, 100 nmol/kg s.c., * = only two time points used for calculation
Description: Mice were dosed 100 nmol/kg subcutaneously (s.c.). The mice were sacrificed and the blood collected at the following time points; 0.5, 2, 4, 6, 16 and 24 h. Plasma samples were analyzed using protein precipitation, followed by solid phase extraction (SPE) and liquid chromatography mass spectrometry (LC-MS).
Pharmacokinetic profiles were determined for various acylated compounds.

[2] = HbA1c in db/db mice after 28 days; conditions: 4 weeks, 12.7 nmol/kg, P=0.03 Students t-test
Description: Male mice (Long term high fat fed C57Bl/6J, short term high fat fed C57Bl/6J and db/db) were acclimatized with free access to food and water. They were housed in groups of 5-6 in a light-, temperature-, and humidity-controlled room (12-hour light:12-hour dark cycle, lights On/Off at 2000/0800 hour; 24° C.; 50% relative humidity).
The animals were injected s.c. with 100 μl vehicle (once a day) for a period of three days to acclimatize the animals to handling and injections. Blood samples were taken from the eye or from the tip of the tail. The animals were randomized before treatment.
Mice were treated twice daily s.c. with GluGLP-1 agonist or vehicle (injection volume=2.5 ml/kg). Throughout the study, body weights were recorded daily and used to administer the body weight-corrected doses of peptide. Peptide solutions were prepared fresh immediately before dosing. […]
The HbA1c determination is based on Turbidimetric INhibition ImmunoAssay (TINIA) in which HbA1c in the sample reacts with anti-HbA1c to form soluble antigen-antibody complexes. Additions of polyhaptens react with excess anti-HbA1c antibodies to form an insoluble antibody-polyhapten complex, which can be measured turbidimetrically. Liberated hemoglobin in the hemolyzed sample is converted to a derivative having a characteristic absorption spectrum, which is measured bichromatically during the preincubation phases. […]

[3] = Total cholesterol and HDL/LDL ratio in Diet Induced Obese (DIO) mice; conditions: 4 weeks, 12.7 nmol/kg, plasma, P<0.0001
Description: The assay is an enzymatic colorimetric method. In the presence of magnesium ions, dextran sulfate selectively forms water-soluble complexes with LDL, VLDLA and chylomicrons, which are resistant to PEG-modified enzymes. The HDL cholesterol is determined enzymatically by cholesterol esterase and cholesterol oxidase coupled with PEG to the amino groups. Cholesterol esters are broken down quantitatively to free cholesterol and fatty acids. HDL cholesterol is enzymatically oxidized to choles-4-en-3-one and H2O2, and the formed H2O2 is measured colorimetrically (Cobas®; Application note HDLC3).
The direct determination of LDL takes advantage of the selective micellary solubilization of LDL by a nonionic detergent and the interaction of a sugar compound and lipoproteins (VLDL and chylomicrons). The combination of a sugar compound with detergent enables the selective determination of LDL in plasma. […] Free cholesterol is then oxidized and the formed H2O2 is measured colorimetrically (Application note LDL_C, Cobas®).
Diet Induced Obese (DIO) mice were treated with vehicle or compound 7 for 4 weeks and plasma prepared from the collected blood samples. The total cholesterol, LDL and HDL were determined in each plasma sample (Cobas® application notes: CHOL2, HDLC3 and LDL_C) and results are shown in FIGS. 5 and 6.

[4] = Body weight gain in high fat fed C57BL/6J mice (10 days); conditions: 5 nmol/kg b.i.d. s.c., short term high fat-fed C57BL/6J mice
Procedure, shortened: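 Male C57Bl/6J mice fed high fat diet for 4 weeks from 6 weeks of age, vehicle-acclimatized 3 days, then dosed b.i.d. s.c. with peptide at 0.5 and 5 nmol/kg or vehicle. Doses corrected to daily body weights, which were recorded throughout.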

[5] = Oral glucose tolerance 2, 4, 6, 8, 10 and 12 h after dosing in high fat fed mice; conditions: 10 nmol/kg s.c. single dose, high fat fed C57BL/6J mice
Description: C57Bl/6J male mice, 6 weeks old, were acclimatized to their new environment with free access to a high fat diet (D12492, Research Diet Inc., New Brunswick, USA) and water. The animals were injected s.c. with vehicle for a period of three days to acclimatize the animals to handling and injections. Blood samples were taken from the tip of the tail and blood glucose measured. The blood glucose (mM) concentration was analyzed by the immobilized glucose oxidase method using a drop of blood (<5 μl; Contour Autoanalyser, Bayer, Denmark) following the manufacturer's manual. After 4 weeks on the high fat diet the animals were weighed and the body weight was used to administer a body weight-corrected dose of peptide. An oral glucose tolerance test (OGTT) was performed after subjecting the animals to 4 hours of fasting. At 2, 4, 6, 8, 10 and 12 hours after single peptide or vehicle dosing an initial blood sample were taken (t=−0 min). Immediately thereafter, an oral dose of glucose (1 g/kg) was given and the animals were returned to their home cages (t=0). BG levels were measured at t=15 min, t=30 min, t=60 min and t=90 min. […]
An oral glucose tolerance test (OGTT) was performed after subjecting the animals to 4 hours of fasting. […] BG levels were measured at t=15 min, t=30 min, t=60 min and t=90 min. […]

[6] = Food intake in young lean and old obese C57BL/6J mice; conditions: s.c. at t=0 h and t=12 h, p<0.05 versus vehicle
Description: C57BL/6J mice were on a high fat diet for 11 days and C57BL/6J mice were on a high fat diet for 52 weeks.
3 days before study, the mice were transferred to individual cages and weighed. 4 days before study, they were acclimatized to handling and treatment by daily s.c. injections. On the day before the experiment food was removed at 20:00. […] Immediately after treatment (t=0), pre-weighed food were introduced to the mice and the cumulative food intake was measured by weighing the remaining food after t=1, 2, 4, 8, 12 and 24 hours. After weighing the food and the animals at t=24 h, the mice were sacrificed by cervical dislocation.
Immediately after treatment (t=0), pre-weighed food were introduced to the mice and the cumulative food intake was measured by weighing the remaining food after t=1, 2, 4, 8, 12 and 24 hours.

- half-life [1]: 204 min
SMILES: CCCCCCCCCCCCCCCC(=O)N[C@@H](CCC(=O)NCCCC[C@H](NC(=O)[C@H](CO)NC(=O)[C@H](CC(=O)O)NC(=O)[C@H](CC(C)C)NC(=O)[C@H](Cc1ccc(O)cc1)NC(=O)[C@H](CCCCN)NC(=O)[C@H](CO)NC(=O)[C@H](Cc1ccc(O)cc1)NC(=O)[C@H](CC(=O)O)NC(=O)[C@H](CO)NC(=O)[C@@H](NC(=O)[C@H](Cc1ccccc1)NC(=O)[C@@H](NC(=O)CNC(=O)[C@H](CCC(N)=O)NC(=O)C(C)(C)NC(=O)[C@@H](N)Cc1c[nH]cn1)[C@@H](C)O)[C@@H](C)O)C(=O)N[C@@H](C)C(=O)N[C@@H](C)C(=O)N[C@@H](Cc1c[nH]cn1)C(=O)N[C@@H](CC(=O)O)C(=O)N[C@@H](Cc1ccccc1)C(=O)N[C@H](C(=O)N[C@@H](CCC(=O)O)C(=O)N[C@@H](Cc1c[nH]c2ccccc12)C(=O)N[C@@H](CC(C)C)C(=O)N[C@@H](CC(C)C)C(=O)N[C@@H](CO)C(=O)N[C@@H](C)C(N)=O)C(C)C)C(=O)O [Compound 7]
- ΔHbA1c (%) compared to vehicle [2]: decreased ΔHbA1c (%) significantly
- HDL/LDL-ratio [3]: increased the HDL/LDL-ratio
- total cholesterol concentrations [3]: decreased total cholesterol concentrations
- body weight gain, high dose [4]: significantly decreased body weight gain at the high dose
- glucose tolerance (AUC during oral glucose tolerance test) [5]: significantly improves glucose tolerance
- food intake, old obese mice ([6]; high fat diet for 52 weeks): reduced food intake during the 0-2, 0-4, 0-8, 0-12 and 0-24 time periods
- food intake, young lean mice ([6]; high fat diet for 11 days): reduced food intake during the 0-4, 0-8, 0-12 and 0-24 time periods
